Source: patent publication US9938322B2, “β-hairpin peptidomimetics” (priority 2013, dated 2018)
Where a SMILES comes first, the peptide text is derived from it. [ ]: non-standard residue; d: D form. Abu(4,4,4-F3) = N[C@@H](CC(F)(F)F)C(=O)O; Cha = N[C@@H](CC1CCCCC1)C(=O)O; Chg = N[C@H](C(=O)O)C1CCCCC1; Tle = CC(C)(C)[C@H](N)C(=O)O; dDab = NCC[C@@H](N)C(=O)O; Orn = NCCC[C@H](N)C(=O)O; Dab = NCC[C@H](N)C(=O)O; Nva = CCC[C@H](N)C(=O)O; Dap = NC[C@H](N)C(=O)O

Tested on: human red blood cells (hRBC)
Experiment: Hemolysis of human red blood cells
Type: cell-based
Settings: red cells of human, 1 h, 100
In short: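 Washed fresh human erythrocytes (20% v/v, about 0.9×10^9 cells/ml final) incubated with peptide at 100 μg/ml for 1 h at 37° C with shaking. Supernatant OD540 read; hemolysis expressed relative to 2.5% Triton X-100 (100%) and PBS with 0.001% acetic acid (0%).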

Row | Structure (SMILES) | Hemolysis at 100 μg/ml [%]
1 | CC(C)C[C@@H]1NC(=O)[C@@H]2CCCN2C(=O)[C@H]2CCCN2C(=O)[C@H](CO)NC(=O)[C@H](C)NC(=O)[C@H](C(C)(C)C)NC(=O)[C@H](CCN)NC(=O)[C@H](Cc2c[nH]c3ccccc23)NC(=O)[C@H](CCN)NC(=O)[C@@H](CCN)NC(=O)[C@H](CCCN)NC(=O)[C@H](CCN)NC(=O)[C@H](Cc2ccc(O)cc2)NC(=O)[C@H](CN)NC1=O [compound 145] (cyclo(L[Dap]Y[Dab][Orn][dDab][Dab]W[Dab][Tle]AS[dP]P)) | 0
2 | CC[C@H](C)[C@@H]1NC(=O)[C@@H]2CCCN2C(=O)[C@H]2CCCN2C(=O)[C@H](CO)NC(=O)[C@H](C)NC(=O)[C@H](C(C)(C)C)NC(=O)[C@H](CCN)NC(=O)[C@H](Cc2c[nH]c3ccccc23)NC(=O)[C@H](CCN)NC(=O)[C@@H](CCN)NC(=O)[C@H](CCCN)NC(=O)[C@H](CCN)NC(=O)[C@H](Cc2ccc(O)cc2)NC(=O)[C@H](CN)NC1=O [compound 146] (cyclo(I[Dap]Y[Dab][Orn][dDab][Dab]W[Dab][Tle]AS[dP]P)) | 0
3 | CC(C)C[C@@H]1NC(=O)[C@@H]2CCCN2C(=O)[C@H]2CCCN2C(=O)[C@H](CO)NC(=O)[C@H](C)NC(=O)[C@H](C(C)(C)C)NC(=O)[C@H](CCN)NC(=O)[C@H](Cc2c[nH]c3ccccc23)NC(=O)[C@H](CCN)NC(=O)[C@@H](CCN)NC(=O)[C@H](CCCN)NC(=O)[C@H](CCN)NC(=O)[C@H](Cc2c[nH]c3ccccc23)NC(=O)[C@H](CN)NC1=O [compound 147] (cyclo(L[Dap]W[Dab][Orn][dDab][Dab]W[Dab][Tle]AS[dP]P)) | 0
4 | CC(C)C[C@@H]1NC(=O)[C@@H]2CCCN2C(=O)[C@H]2CCCN2C(=O)[C@H](CO)NC(=O)[C@H]([C@@H](C)O)NC(=O)[C@H](C(C)(C)C)NC(=O)[C@H](CCN)NC(=O)[C@H](Cc2c[nH]c3ccccc23)NC(=O)[C@H](CCN)NC(=O)[C@@H](CCN)NC(=O)[C@H](CCCN)NC(=O)[C@H](CCN)NC(=O)[C@H](Cc2ccc(O)cc2)NC(=O)[C@H](CCN)NC1=O [compound 148] (cyclo(L[Dab]Y[Dab][Orn][dDab][Dab]W[Dab][Tle]TS[dP]P)) | 1
5 | CC(C)C[C@@H]1NC(=O)[C@@H]2CCCN2C(=O)[C@H]2CCCN2C(=O)[C@H]([C@@H](C)O)NC(=O)[C@H](CO)NC(=O)[C@H](C(C)(C)C)NC(=O)[C@H](CCN)NC(=O)[C@H](Cc2c[nH]c3ccccc23)NC(=O)[C@H](CCN)NC(=O)[C@@H](CCN)NC(=O)[C@H](CCN)NC(=O)[C@H](CCN)NC(=O)[C@H](Cc2ccc(O)cc2)NC(=O)[C@H](CN)NC1=O [compound 149] (cyclo(L[Dap]Y[Dab][Dab][dDab][Dab]W[Dab][Tle]ST[dP]P)) | 4
6 | CCC[C@@H]1NC(=O)[C@@H]2CCCN2C(=O)[C@H]2CCCN2C(=O)[C@H](CO)NC(=O)[C@H](C)NC(=O)[C@H](C2CCCCC2)NC(=O)[C@H](CCN)NC(=O)[C@H](Cc2c[nH]c3ccccc23)NC(=O)[C@H](CCN)NC(=O)[C@@H](CCN)NC(=O)[C@H](CCCN)NC(=O)[C@H](CCN)NC(=O)[C@H](CC2CCCCC2)NC(=O)[C@H](C)NC1=O [compound 150] (cyclo([Nva]A[Cha][Dab][Orn][dDab][Dab]W[Dab][Chg]AS[dP]P)) | 4
7 | CC[C@H](C)[C@@H]1NC(=O)[C@@H]2CCCN2C(=O)[C@H]2CCCN2C(=O)[C@H](CO)NC(=O)[C@H](CO)NC(=O)[C@H](C(C)(C)C)NC(=O)[C@H](CCN)NC(=O)[C@H](Cc2c[nH]c3ccccc23)NC(=O)[C@H](CCN)NC(=O)[C@@H](CCN)NC(=O)[C@H](CCCN)NC(=O)[C@H](CCN)NC(=O)[C@H](CC2CCCCC2)NC(=O)[C@H](C)NC1=O [compound 151] (cyclo(IA[Cha][Dab][Orn][dDab][Dab]W[Dab][Tle]SS[dP]P)) | 7
8 | CC(C)C[C@@H]1NC(=O)[C@@H]2CCCN2C(=O)[C@H]2CCCN2C(=O)[C@H](CO)NC(=O)[C@H](CO)NC(=O)[C@H](C(C)(C)C)NC(=O)[C@H](CCN)NC(=O)[C@H](Cc2c[nH]c3ccccc23)NC(=O)[C@H](CCN)NC(=O)[C@@H](CCN)NC(=O)[C@H](CCCN)NC(=O)[C@H](CCN)NC(=O)[C@H](CC2CCCCC2)NC(=O)[C@H](C)NC1=O [compound 152] (cyclo(LA[Cha][Dab][Orn][dDab][Dab]W[Dab][Tle]SS[dP]P)) | 5
9 | C[C@@H]1NC(=O)[C@H](C(C)(C)C)NC(=O)[C@H](CCN)NC(=O)[C@H](Cc2c[nH]c3ccccc23)NC(=O)[C@H](CCN)NC(=O)[C@@H](CCN)NC(=O)[C@H](CCCN)NC(=O)[C@H](CCN)NC(=O)[C@H](Cc2ccc(O)cc2)NC(=O)[C@H](CO)NC(=O)[C@H](Cc2ccc(O)cc2)NC(=O)[C@@H]2CCCN2C(=O)[C@H]2CCCN2C(=O)[C@H](Cc2ccc(O)cc2)NC1=O [compound 153] (cyclo(YSY[Dab][Orn][dDab][Dab]W[Dab][Tle]AY[dP]P)) | 2
10 | CC(C)C[C@@H]1NC(=O)[C@@H]2CCCN2C(=O)[C@H]2CCCN2C(=O)[C@H](CO)NC(=O)[C@@H](C)NC(=O)[C@H](C(C)(C)C)NC(=O)[C@H](CCN)NC(=O)[C@H](Cc2c[nH]c3ccccc23)NC(=O)[C@H](CCN)NC(=O)[C@@H](CCN)NC(=O)[C@H](CCCN)NC(=O)[C@H](CCN)NC(=O)[C@H](Cc2ccc(O)cc2)NC(=O)[C@H](CO)NC1=O [compound 154] (cyclo(LSY[Dab][Orn][dDab][Dab]W[Dab][Tle][dA]S[dP]P)) | 0
11 | CC(C)C[C@@H]1NC(=O)[C@@H]2CCCN2C(=O)[C@H]2CCCN2C(=O)[C@H](CO)NC(=O)[C@H](C)NC(=O)[C@H](C(C)(C)C)NC(=O)[C@H](CCN)NC(=O)[C@H](Cc2c[nH]c3ccccc23)NC(=O)[C@@H](CCN)NC(=O)[C@@H](CCN)NC(=O)[C@H](CCCN)NC(=O)[C@H](CCN)NC(=O)[C@H](Cc2ccc(O)cc2)NC(=O)[C@H](CO)NC1=O [compound 155] (cyclo(LSY[Dab][Orn][dDab][dDab]W[Dab][Tle]AS[dP]P)) | 0
12 | C[C@@H]1NC(=O)[C@H](C(C)(C)C)NC(=O)[C@H](CCN)NC(=O)[C@H](Cc2c[nH]c3ccccc23)NC(=O)[C@H](CCN)NC(=O)[C@@H](CCN)NC(=O)[C@H](CCCN)NC(=O)[C@H](CCN)NC(=O)[C@H](Cc2ccc(O)cc2)NC(=O)[C@H](CO)NC(=O)[C@H](CC(F)(F)F)NC(=O)[C@@H]2CCCN2C(=O)[C@H]2CCCN2C(=O)[C@H](CO)NC1=O [compound 156] (cyclo([Abu(4,4,4-F3)]SY[Dab][Orn][dDab][Dab]W[Dab][Tle]AS[dP]P)) | 1
13 | CC(C)C[C@@H]1NC(=O)[C@@H]2CCCN2C(=O)[C@H]2CCCN2C(=O)[C@H](CO)NC(=O)[C@H](CCN)NC(=O)[C@H](C(C)(C)C)NC(=O)[C@H](CCN)NC(=O)[C@H](Cc2c[nH]c3ccccc23)NC(=O)[C@H](CCN)NC(=O)[C@@H](CCN)NC(=O)[C@H](CCCN)NC(=O)[C@H](CCN)NC(=O)[C@H](Cc2ccc(O)cc2)NC(=O)CNC1=O [compound 157] (cyclo(LGY[Dab][Orn][dDab][Dab]W[Dab][Tle][Dab]S[dP]P)) | 1
14 | C[C@@H]1NC(=O)[C@H](C(C)(C)C)NC(=O)[C@H](CCN)NC(=O)[C@H](Cc2c[nH]c3ccccc23)NC(=O)[C@H](CCN)NC(=O)[C@@H](CCN)NC(=O)[C@H](CCCN)NC(=O)[C@H](CCN)NC(=O)[C@H](Cc2ccc(O)cc2)NC(=O)[C@H](CO)NC(=O)[C@H]([C@@H](C)O)NC(=O)[C@@H]2CCCN2C(=O)[C@H]2CCCN2C(=O)[C@H](Cc2ccc(O)cc2)NC1=O [compound 158] (cyclo(TSY[Dab][Orn][dDab][Dab]W[Dab][Tle]AY[dP]P)) | 1
